Target: T1, LATS1 (Homo sapiens, UniProt O95835)
T1 construct: purchased Thermo Fisher Scientific (Life Technologies) SelectScreen
Assay: SelectScreen LanthaScreen
Type: binding
Settings: read-out: % displacement
Summary of the method: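 Percent values come from Thermo SelectScreen profiling of NU5455, combining activity and binding assays. CSF1R was run in Z'LYTE format at Km app ATP, and CAMK1 in Adapta format with ATP listed at 10.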

T1 sequence (O95835 whole entry): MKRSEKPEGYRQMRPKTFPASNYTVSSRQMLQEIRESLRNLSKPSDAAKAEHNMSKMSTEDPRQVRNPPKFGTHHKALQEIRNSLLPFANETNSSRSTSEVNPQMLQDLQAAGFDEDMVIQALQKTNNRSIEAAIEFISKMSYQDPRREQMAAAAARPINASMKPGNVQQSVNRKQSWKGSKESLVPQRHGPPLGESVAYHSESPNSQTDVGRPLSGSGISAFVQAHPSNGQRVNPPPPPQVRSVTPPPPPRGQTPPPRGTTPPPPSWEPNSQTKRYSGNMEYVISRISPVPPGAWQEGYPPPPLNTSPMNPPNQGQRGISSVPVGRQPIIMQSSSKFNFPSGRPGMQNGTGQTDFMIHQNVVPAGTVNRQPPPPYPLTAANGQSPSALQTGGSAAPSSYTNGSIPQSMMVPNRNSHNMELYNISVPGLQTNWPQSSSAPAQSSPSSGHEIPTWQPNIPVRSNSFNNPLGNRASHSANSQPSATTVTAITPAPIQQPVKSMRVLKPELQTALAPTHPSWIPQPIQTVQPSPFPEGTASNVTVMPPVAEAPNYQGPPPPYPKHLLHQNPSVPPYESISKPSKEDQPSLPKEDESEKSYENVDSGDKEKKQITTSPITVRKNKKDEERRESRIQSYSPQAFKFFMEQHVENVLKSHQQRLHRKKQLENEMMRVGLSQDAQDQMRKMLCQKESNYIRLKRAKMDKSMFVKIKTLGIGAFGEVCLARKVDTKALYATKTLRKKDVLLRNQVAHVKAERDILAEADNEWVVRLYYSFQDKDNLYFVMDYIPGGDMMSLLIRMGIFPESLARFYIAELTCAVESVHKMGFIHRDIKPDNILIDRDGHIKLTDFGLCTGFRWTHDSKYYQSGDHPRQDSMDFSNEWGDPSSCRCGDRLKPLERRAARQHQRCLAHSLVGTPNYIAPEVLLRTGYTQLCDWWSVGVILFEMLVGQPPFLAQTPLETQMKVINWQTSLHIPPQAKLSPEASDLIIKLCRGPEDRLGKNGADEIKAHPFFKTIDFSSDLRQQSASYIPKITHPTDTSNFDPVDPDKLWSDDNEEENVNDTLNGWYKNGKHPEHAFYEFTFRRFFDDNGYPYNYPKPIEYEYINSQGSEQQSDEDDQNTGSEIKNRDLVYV

CN(C(=O)CN1CCOCC1)c1ccc2sc3c(-c4cccc5c(=O)cc(N6CC7CCC(C6)O7)oc45)cccc3c2c1 [NU5455]
inhibition at 1 µM: -1.3%
